Results on 16 compounds are retold here after ChEMBL document CHEMBL3045097, “Synthesis and anticonvulsant evaluation of 2-(substituted benzylidene/ethylidene)-N-(substituted phenyl)hydrazinecarboxamide analogues” (Med Chem Res, 2013).

Calls of active or inactive are those of the source. The rule behind the calls is not given here.

The test system of data set [1] is Mus musculus. Nature of the data set: Neurotoxicity in Mus musculus (mouse) assessed as motor impairment at 30 to 300 mg/kg, ip measured at 0.5 hr by rotarod test. Format: toxicity, organism-based. More on the design: dose 30-300 mg/kg, route intraperitoneal. Conditions: in vivo. On the technique in general: Falling from the rotarod earlier than controls is read as motor impairment.

The test system of data set [2] is Mus musculus. Nature of the data set: Anticonvulsant activity in Mus musculus (mouse) assessed as protection against maximal-electric shock-induced seizures at 30 to 300 mg/kg, ip measured at 4 hr. Format: functional, organism-based.
Data set [3] has as its system Mus musculus. Nature of the data set: Anticonvulsant activity in Mus musculus (mouse) assessed as protection against maximal-electric shock-induced seizures at 30 to 300 mg/kg, ip measured at 0.5 hr. Format: functional, organism-based.
Data set [4] deals with Mus musculus. Nature of the data set: Anticonvulsant activity in Mus musculus (mouse) assessed as protection against scMET-induced clonic seizures at 30 to 300 mg/kg, ip measured at 0.5 to 4 hr. Format: functional, organism-based.
For data set [5], the system named is Mus musculus. Nature of the data set: Neurotoxicity in Mus musculus (mouse) assessed as motor impairment at 30 to 300 mg/kg, ip measured at 4 hr by rotarod test. Format: toxicity, organism-based. More on the design: dose 30-300 mg/kg, route intraperitoneal. Conditions: in vivo.
Data set [6] deals with Mus musculus. Nature of the data set: Anticonvulsant activity in i.p. dosed Mus musculus (mouse) assessed as protection against maximal-electric shock-induced seizures measured at 4 hr. Conditions: ip, read-out: MED. Format: functional.
Data set [7] deals with Mus musculus. Nature of the data set: Anticonvulsant activity in Mus musculus (mouse) assessed as protection against 6 Hz psychomotor-induced clonic seizures at 100 mg/kg, ip measured at 2 hr relative to control. Format: functional.
The test system of data set [8] is Mus musculus. Nature of the data set: Neurotoxicity in Mus musculus (mouse) assessed as motor impairment at 100 mg/kg, ip measured at 4 hr by rotarod test relative to control. Format: toxicity, organism-based. More on the design: dose 100 mg/kg, route intraperitoneal. Conditions: in vivo.
Data set [9] has as its system Mus musculus. Nature of the data set: Neurotoxicity in Mus musculus (mouse) assessed as motor impairment at 100 mg/kg, ip measured at 2 hr by rotarod test relative to control. More on the design: dose 100 mg/kg, route intraperitoneal. Format: toxicity, organism-based. Conditions: in vivo.
Data set [10] deals with Mus musculus. Nature of the data set: Neurotoxicity in Mus musculus (mouse) assessed as motor impairment at 100 mg/kg, ip measured at 0.5 hr by rotarod test relative to control. Format: toxicity, organism-based. More on the design: dose 100 mg/kg, route intraperitoneal. Conditions: in vivo.
The subject of data set [11] is Mus musculus. Nature of the data set: Neurotoxicity in Mus musculus (mouse) assessed as motor impairment at 100 mg/kg, ip measured at 1 hr by rotarod test relative to control. More on the design: dose 100 mg/kg, route intraperitoneal. Format: toxicity, organism-based. Conditions: in vivo.
Data set [12] relates to Mus musculus. Nature of the data set: Neurotoxicity in Mus musculus (mouse) assessed as motor impairment at 100 mg/kg, ip measured at 0.25 hr by rotarod test relative to control. Format: toxicity, organism-based. More on the design: dose 100 mg/kg, route intraperitoneal. Conditions: in vivo.
For data set [13], the system named is Mus musculus. Nature of the data set: Anticonvulsant activity in Mus musculus (mouse) assessed as protection against 6 Hz psychomotor-induced clonic seizures at 100 mg/kg, i.p. measured at 4 hr relative to control. Format: functional.
Data set [14] has as its system Mus musculus. Nature of the data set: Anticonvulsant activity in Mus musculus (mouse) assessed as protection against 6 Hz psychomotor-induced clonic seizures at 100 mg/kg, i.p. measured at 1 hr relative to control. Format: functional.
The subject of data set [15] is Mus musculus. Nature of the data set: Anticonvulsant activity in Mus musculus (mouse) assessed as protection against 6 Hz psychomotor-induced clonic seizures at 100 mg/kg, i.p. measured at 0.5 hr relative to control. Format: functional.
Data set [16] has as its system Mus musculus. Nature of the data set: Anticonvulsant activity in Mus musculus (mouse) assessed as protection against 6 Hz psychomotor-induced clonic seizures at 100 mg/kg, i.p. measured at 0.25 hr relative to control. Format: functional.

Turning to `Cc1ccc(NC(=O)N/N=C/c2ccccc2Cl)cc1`, the Activity result in the data set with Mus musculus [1] and in the data set on Mus musculus [5] was “Non-toxic” in each case. Besides, the outcome in the data set on Mus musculus [2], with Mus musculus [3] and with Mus musculus [4] was inactive.

Take `COc1ccc(/C=N/NC(=O)Nc2ccccc2Cl)cc1OC`: the Activity entry was “Non-toxic” in the data set with Mus musculus [1]; 25% in the data set on Mus musculus [7] (route intraperitoneal); “Non-toxic” with Mus musculus [8]; “Non-toxic” with Mus musculus [9]; “Non-toxic” in the data set on Mus musculus [10]; “Non-toxic” in the data set on Mus musculus [11]. Further, the Activity result is listed as “Non-toxic” in the data set with Mus musculus [12], 25% in the data set with Mus musculus [13] (route intraperitoneal), 25% in the data set with Mus musculus [16] (route intraperitoneal) and “Non-toxic” with Mus musculus [5]. In addition, the result in the data set with Mus musculus [3], in the data set on Mus musculus [14], in the data set on Mus musculus [15] and with Mus musculus [4] was inactive. Also, the minimal effective dose in the data set with Mus musculus [6] came to 100 mg/kg.

As to `C/C(=N\NC(=O)Nc1ccc(C)cc1)c1ccccc1O`, the Activity entry in the data set on Mus musculus [1] and in the data set on Mus musculus [5] was “Non-toxic” each time. For the same compound, the outcome in the data set on Mus musculus [2], in the data set with Mus musculus [3] and in the data set with Mus musculus [4] was inactive.

For `O=C(N/N=C/c1cccc(O)c1)Nc1ccccc1Cl`, the Activity entry in the data set with Mus musculus [1] and in the data set with Mus musculus [5] was “Non-toxic” in each case. Further, the outcome in the data set on Mus musculus [2], with Mus musculus [3] and in the data set with Mus musculus [4] was inactive.

As to `O=C(N/N=C/c1ccc(Cl)cc1Cl)Nc1ccccc1Cl`, the Activity entry with Mus musculus [1] and in the data set with Mus musculus [5] was “Non-toxic” throughout. Moreover, the result in the data set on Mus musculus [2], in the data set with Mus musculus [3] and in the data set on Mus musculus [4] was inactive.

For the compound `NNC(=O)Nc1ccccc1Cl`, the Activity entry with Mus musculus [1] is “Non-toxic”; in the data set with Mus musculus [7] (route intraperitoneal), 100%; in the data set with Mus musculus [8] it was 25%; in the data set with Mus musculus [9], “Non-toxic”; in the data set on Mus musculus [10] it was 25%; in the data set on Mus musculus [11], 25%. Moreover, the Activity in the data set on Mus musculus [12] is 25%; in the data set with Mus musculus [14] (route intraperitoneal), 100%; in the data set with Mus musculus [15] (route intraperitoneal), 100%; in the data set on Mus musculus [16] (route intraperitoneal) it was 100%; in the data set with Mus musculus [5], “Non-toxic”. Further, the result with Mus musculus [2], in the data set on Mus musculus [3] and with Mus musculus [4] was inactive. In addition, the result in the data set on Mus musculus [13] was Active.

As to `C/C(=N\NC(=O)Nc1ccccc1Cl)c1ccc(Cl)cc1`, the Activity entry in the data set on Mus musculus [1], in the data set with Mus musculus [8], with Mus musculus [9], with Mus musculus [10], with Mus musculus [11] and in the data set with Mus musculus [12] was “Non-toxic” in each case. The Activity is 50% in the data set with Mus musculus [14] (route intraperitoneal) and “Non-toxic” in the data set on Mus musculus [5]. Moreover, the outcome in the data set with Mus musculus [3], in the data set with Mus musculus [7], in the data set on Mus musculus [13], with Mus musculus [15], in the data set with Mus musculus [16] and in the data set on Mus musculus [4] was inactive. For the same compound, in the data set on Mus musculus [6], the minimal effective dose was determined as 100 mg/kg.

`O=C(NN=C1CCCC1)Nc1ccccc1Cl`: the Activity entry in the data set on Mus musculus [1] and in the data set with Mus musculus [5] was “Non-toxic” each time. Moreover, the outcome in the data set on Mus musculus [2], in the data set with Mus musculus [3] and in the data set on Mus musculus [4] was inactive.

In the case of `Cc1ccc(NC(=O)N/N=C/c2cccc(O)c2)cc1`, the Activity result is listed as “Non-toxic” with Mus musculus [1]; 25% with Mus musculus [7] (route intraperitoneal); “Non-toxic” in the data set with Mus musculus [8]; “Non-toxic” in the data set on Mus musculus [9]; “Non-toxic” in the data set with Mus musculus [10]; “Non-toxic” in the data set on Mus musculus [11]. The Activity entry with Mus musculus [12] was “Non-toxic”; in the data set with Mus musculus [15] (route intraperitoneal), 25%; in the data set on Mus musculus [16] (route intraperitoneal) it was 50%; in the data set on Mus musculus [5], “Non-toxic”. Besides, the result in the data set with Mus musculus [2], with Mus musculus [3], in the data set on Mus musculus [13], in the data set on Mus musculus [14] and in the data set with Mus musculus [4] was inactive.

For the compound `O=C(N/N=C/c1ccc(O)cc1)Nc1ccccc1Cl`, the Activity entry with Mus musculus [1] is listed as “Non-toxic”; in the data set on Mus musculus [7] (route intraperitoneal), 50%; in the data set with Mus musculus [8] it was “Non-toxic”; with Mus musculus [9], “Non-toxic”; with Mus musculus [10], “Non-toxic”; in the data set with Mus musculus [11], “Non-toxic”. Moreover, the Activity entry in the data set on Mus musculus [12] is “Non-toxic”; in the data set with Mus musculus [14] (route intraperitoneal), 50%; in the data set on Mus musculus [15] (route intraperitoneal) it was 100%; in the data set with Mus musculus [16] (route intraperitoneal), 50%; in the data set on Mus musculus [5], “Non-toxic”. Further, the result with Mus musculus [3], with Mus musculus [13] and in the data set on Mus musculus [4] was inactive. The minimal effective dose in the data set on Mus musculus [6] amounted to 100 mg/kg.

For the compound `COc1cc(/C=N/NC(=O)Nc2ccc(C)cc2)ccc1O`, the Activity result with Mus musculus [1] and in the data set on Mus musculus [5] was “Non-toxic” throughout. Also, the result in the data set with Mus musculus [2], in the data set with Mus musculus [3] and with Mus musculus [4] was inactive.

As to `O=C(N/N=C/c1ccco1)Nc1ccccc1Cl`, the Activity result in the data set on Mus musculus [1] and with Mus musculus [5] was “Non-toxic” throughout. Moreover, the outcome in the data set on Mus musculus [2], in the data set on Mus musculus [3] and with Mus musculus [4] was inactive.

Turning to `C/C(=N\NC(=O)Nc1ccccc1Cl)c1ccc(C)cc1`, the Activity result with Mus musculus [1] and in the data set with Mus musculus [5] was “Non-toxic” each time. Moreover, the result with Mus musculus [2], with Mus musculus [3] and with Mus musculus [4] was inactive.

`O=C(N/N=C/c1ccc(Cl)cc1)Nc1ccccc1Cl`: the Activity entry in the data set on Mus musculus [1] and in the data set on Mus musculus [5] was “Non-toxic” in each case. Besides, the result in the data set on Mus musculus [2], in the data set on Mus musculus [3] and in the data set with Mus musculus [4] was inactive.

For `CC(=O)C/C(C)=N/NC(=O)Nc1ccc(C)cc1`, the Activity result in the data set on Mus musculus [1] and in the data set on Mus musculus [5] was “Non-toxic” in each case. In addition, the outcome in the data set on Mus musculus [2], in the data set with Mus musculus [3] and in the data set on Mus musculus [4] was inactive.

Turning to `C/C(=N\NC(=O)Nc1ccc(C)cc1)c1ccc(O)cc1O`, the Activity entry in the data set on Mus musculus [1] and in the data set with Mus musculus [5] was “Non-toxic” each time. Besides, the outcome in the data set on Mus musculus [2], with Mus musculus [3] and in the data set on Mus musculus [4] was inactive.
